Values quoted from earlier work in patent US5723149A, “Use of medicago saponins for the preparation of cosmetic or pharmaceutical compositions, especially dermatological compositions, promoting renewal of the epidermis, stimulating hair regrowth or delaying hair loss” (LVMH Recherche, priority 1990, dated 1998).

What was measured:
[1] = B. GESTETNER et al., Experientia, 1971
[2] = DE-3 717 280

## CC1(C)CC[C@]2(C(=O)O)CC[C@]3(C)C(=CC[C@@H]4[C@@]5(C)C[C@H](O)[C@H](O)[C@@](C)(C(=O)O)[C@@H]5CC[C@]43C)[C@@H]2C1 [medicagenic acid]
[1]
  hemolytic activity: hemolytic activity
[2]
  antifungal activity: antifungal activity
